Assay results from ChEMBL document CHEMBL1201862, “PubChem BioAssay data set” (2004).
Activity calls are given as the source filed them.

Legend:
[1] = target: T1, Polyadenylate-binding protein 1 (Homo sapiens, UniProt P11940); experiment: MLLE binding blockers, Cy5 peptide tracer – biochemical, fluorescence polarization, Cy5-PAM2 peptide, secondary, miRNA deadenylation inhibitor project, dose response (AID 602260); assay type: functional; settings: read-out: IC50_Mean
[2] = viability loss in human Jurkat cells – cell-based, luminescence, cytotoxicity control for P. falciparum gametocyte viability project, dose response (AID 1117277); assay type: functional;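 note: potency reflects loss of cellular ATP meaning fewer viable cells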
[3] = target: T1, Polyadenylate-binding protein 1; experiment: MLLE domain peptide-binding blockers, IC50 – biochemical, fluorescence polarization, FITC-PAM2 peptide, dose response (AID 602259); assay type: functional; settings: read-out: IC50_Mean
[4] = viability inhibitors of stage V gametocytes – luminescence, dose response (AID 1117278); assay type: functional, cell-based;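 note: gametocytes exposed to compound for 24 hours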
[5] = target: Nonstructural protein 1 (Influenza A virus, UniProt Q194T2); assay type: functional, Influenza A virus (A/California/07/2009(H1N1))
Sequence of Nonstructural protein 1 (Q194T2 whole entry): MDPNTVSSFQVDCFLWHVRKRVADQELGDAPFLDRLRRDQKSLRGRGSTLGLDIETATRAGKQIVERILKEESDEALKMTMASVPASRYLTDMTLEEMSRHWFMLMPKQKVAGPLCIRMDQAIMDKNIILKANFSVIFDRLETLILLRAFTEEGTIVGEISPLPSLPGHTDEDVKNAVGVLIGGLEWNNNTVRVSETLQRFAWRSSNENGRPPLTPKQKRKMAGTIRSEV

[6] = Trypanosoma cruzi growth suppression in host cells – NIH3T3 host cells, beta-gal luminescence, confirmation (AID 2044); assay type: functional, cell-based;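 note: intracellular parasites grown in NIH/3T3 mouse fibroblasts as host cells; luminescent beta-galactosidase reporter signal from transgenic T. cruzi replicating inside host cells; inhibitors lower the luminescence signal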
[7] = cells
[8] = NIH3T3 cell viability loss – ATP luminescence, mouse fibroblasts, counter-screen, dose response (AID 2010); assay type: functional, cell-based;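 note: cells exposed to compound for about 90 hours before reading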
[9] = A cytotoxicity screen of small molecule inhibitors of the PhoP region in Salmonella typhi identified in the primary screen. [Related pubchem assays: 1850, 1864, 1985 ]; assay type: functional
[10] = microbe, parasite or virus in culture; assay type: functional; settings: Mycobacterium tuberculosis
[11] = viability of PTEN-deleted HCT116 cells – cell-based, HCT116 PTEN knockout, dose response (AID 1047); assay type: functional;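 note: HCT116 colon tumor cells with PTEN knocked out; cells exposed to compound for 60 hours before readout; potency for loss of cell viability measured by luminescence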
[12] = viability of HCT116 lacking mutant beta-catenin – cell-based, human colon tumor, dose response (AID 1045); assay type: functional;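 note: HCT116 colon tumor cells with beta catenin knocked out; cells exposed to compound for 60 hours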
[13] = system: INS1; experiment: INS-1E survival protection against cytokine death – cell-based, luminescence, retest, dose response (AID 449756); assay type: functional; settings: Rattus norvegicus;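 note: cell death triggered by IL-1 beta plus TNF-alpha plus IFN-gamma mixture; protective hits raise ATP signal compared with cytokine alone wells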
[14] = target: Neurotensin receptor type 1 (Homo sapiens, UniProt P30989); assay type: functional;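 note: Image-based confirmatory dose-response assay measuring agonist activity at NTR1; NTR1-expressing U2OS osteosarcoma cells imaged for beta-arrestin GFP spot formation; agonist potency where compounds increase beta-arrestin recruitment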
Sequence of Neurotensin receptor type 1 (P30989 whole entry): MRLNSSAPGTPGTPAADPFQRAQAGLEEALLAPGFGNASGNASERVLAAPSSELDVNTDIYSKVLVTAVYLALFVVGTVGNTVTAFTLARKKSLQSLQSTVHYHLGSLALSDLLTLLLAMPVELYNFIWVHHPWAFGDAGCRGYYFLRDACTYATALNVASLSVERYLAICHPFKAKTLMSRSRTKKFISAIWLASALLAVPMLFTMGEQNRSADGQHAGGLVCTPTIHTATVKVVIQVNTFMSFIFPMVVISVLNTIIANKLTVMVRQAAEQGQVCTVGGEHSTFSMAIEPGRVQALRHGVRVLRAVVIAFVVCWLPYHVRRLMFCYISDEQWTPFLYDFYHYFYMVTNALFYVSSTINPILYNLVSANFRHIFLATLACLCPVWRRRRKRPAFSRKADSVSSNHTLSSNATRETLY

[15] = Luminescence Cell-Based Dose Retest to Confirm Inhibitors of Cancer Stem Cells. [Related pubchem assays (depositor defined):AID2717, AID2721]; assay type: functional; settings: Homo sapiens
[16] = target: Melanocortin receptor 4 (Homo sapiens, UniProt P32245); assay type: functional, cell-based;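 note: Cell-based assay with luminescence read-out, confirmatory dose-response testing for agonist activity of biased ligands at MC4R; human U2OS cells with tagged receptor and beta-arrestin; potency of agonists that increase receptor coupling to beta-arrestin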
Sequence of Melanocortin receptor 4 (P32245 whole entry): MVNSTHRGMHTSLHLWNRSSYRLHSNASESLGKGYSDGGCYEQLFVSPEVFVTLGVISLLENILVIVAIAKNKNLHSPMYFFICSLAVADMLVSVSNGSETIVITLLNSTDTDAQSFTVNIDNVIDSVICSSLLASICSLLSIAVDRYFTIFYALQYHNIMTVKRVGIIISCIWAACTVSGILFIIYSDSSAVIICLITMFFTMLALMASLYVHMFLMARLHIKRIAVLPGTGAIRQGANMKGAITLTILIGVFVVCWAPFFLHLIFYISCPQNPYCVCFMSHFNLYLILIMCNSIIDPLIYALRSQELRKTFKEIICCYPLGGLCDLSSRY

[17] = target: T2, Estrogen receptor beta (Homo sapiens, UniProt Q92731);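 note: recombinant ER-beta bound to coactivator SRC1 peptide in presence of estradiol agonist; inhibitors block coactivator peptide binding and lower the FRET signal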
T2 sequence (Q92731 whole entry): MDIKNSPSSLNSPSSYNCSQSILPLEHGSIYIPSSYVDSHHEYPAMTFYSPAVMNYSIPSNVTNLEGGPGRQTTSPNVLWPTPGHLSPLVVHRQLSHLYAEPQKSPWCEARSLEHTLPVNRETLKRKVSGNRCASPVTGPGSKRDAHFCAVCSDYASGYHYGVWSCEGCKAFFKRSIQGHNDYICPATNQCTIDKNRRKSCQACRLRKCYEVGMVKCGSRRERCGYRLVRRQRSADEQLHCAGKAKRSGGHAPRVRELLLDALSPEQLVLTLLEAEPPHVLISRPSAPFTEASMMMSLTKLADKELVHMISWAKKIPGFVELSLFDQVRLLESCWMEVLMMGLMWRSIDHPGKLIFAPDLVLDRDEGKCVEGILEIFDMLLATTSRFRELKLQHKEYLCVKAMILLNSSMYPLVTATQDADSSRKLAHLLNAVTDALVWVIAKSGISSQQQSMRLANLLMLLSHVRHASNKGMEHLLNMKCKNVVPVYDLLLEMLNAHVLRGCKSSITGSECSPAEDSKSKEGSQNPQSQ

[18] = target: T2, Estrogen receptor beta; experiment: blockers of SRC-3 recruitment to ERβ – biochemical, ELISA, streptavidin-HRP readout, orthogonal assay, confirmation (AID 1060)
[19] = target: Cytochrome P450 2C9 (Homo sapiens, UniProt P11712)
Sequence of Cytochrome P450 2C9 (P11712 whole entry): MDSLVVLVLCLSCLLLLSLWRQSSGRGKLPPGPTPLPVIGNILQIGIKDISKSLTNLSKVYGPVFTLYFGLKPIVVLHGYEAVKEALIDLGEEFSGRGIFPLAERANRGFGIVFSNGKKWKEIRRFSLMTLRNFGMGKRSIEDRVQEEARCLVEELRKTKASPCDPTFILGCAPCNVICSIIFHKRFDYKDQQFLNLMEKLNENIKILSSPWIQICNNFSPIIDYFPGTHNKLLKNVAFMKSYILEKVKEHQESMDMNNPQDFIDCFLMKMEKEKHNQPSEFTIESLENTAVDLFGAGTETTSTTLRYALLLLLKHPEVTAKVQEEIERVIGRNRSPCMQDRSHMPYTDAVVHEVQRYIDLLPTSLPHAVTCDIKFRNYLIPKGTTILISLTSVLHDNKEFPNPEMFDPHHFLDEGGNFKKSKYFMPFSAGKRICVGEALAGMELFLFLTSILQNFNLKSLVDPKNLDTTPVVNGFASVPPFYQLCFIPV

[20] = target: Cytochrome P450 2C19 (Homo sapiens, UniProt P33261); experiment: Cytochrome panel assay with activity outcomes. Panel member name: p450-cyp2c19 Compounds with AC50 equal or less than 10 uM are considered active; assay type: functional; settings: read-out: AC50
Sequence of Cytochrome P450 2C19 (P33261 whole entry): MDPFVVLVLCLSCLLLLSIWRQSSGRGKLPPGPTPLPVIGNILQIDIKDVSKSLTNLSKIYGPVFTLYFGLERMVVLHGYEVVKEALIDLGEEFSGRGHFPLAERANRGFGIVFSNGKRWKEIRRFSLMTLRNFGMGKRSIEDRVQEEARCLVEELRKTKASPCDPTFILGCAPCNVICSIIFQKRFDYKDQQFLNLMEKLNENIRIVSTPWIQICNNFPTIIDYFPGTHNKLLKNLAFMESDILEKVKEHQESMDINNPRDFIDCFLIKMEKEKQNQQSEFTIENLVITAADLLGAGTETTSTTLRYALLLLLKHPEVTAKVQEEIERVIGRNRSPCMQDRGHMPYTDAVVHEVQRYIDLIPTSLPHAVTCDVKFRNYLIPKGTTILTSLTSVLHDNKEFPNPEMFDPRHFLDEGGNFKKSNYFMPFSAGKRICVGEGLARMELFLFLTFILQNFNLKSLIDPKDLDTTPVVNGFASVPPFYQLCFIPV

[21] = system: Streptococcus; experiment: GAS UMAA2166 growth inhibition – luminescence, BacTiterGlo, counter-screen for streptokinase expression inhibitor project, dose response (AID 1915); assay type: functional, organism-based;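 note: potency for reduction of bacterial viability or growth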
[22] = system: Streptococcus sp. 'group A'; experiment: Streptococcus pyogenes SK(-)GAS viability under kanamycin – luminescence, BacTiterGlo, confirmation, counter-screen for streptokinase expression inhibitor project, dose response (AID 1900); assay type: functional, organism-based
[23] = target: T3, Streptokinase A (Streptococcus pyogenes serotype M1, UniProt P10520); experiment: viability-normalized secreted streptokinase activity reduction – plasminogen activation absorbance, OD405, dose response (AID 1914); assay type: functional, Streptococcus pyogenes M1 GAS;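 note: secreted streptokinase activity via plasminogen activation per viability signal from cell pellet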
T3 sequence (P10520 whole entry): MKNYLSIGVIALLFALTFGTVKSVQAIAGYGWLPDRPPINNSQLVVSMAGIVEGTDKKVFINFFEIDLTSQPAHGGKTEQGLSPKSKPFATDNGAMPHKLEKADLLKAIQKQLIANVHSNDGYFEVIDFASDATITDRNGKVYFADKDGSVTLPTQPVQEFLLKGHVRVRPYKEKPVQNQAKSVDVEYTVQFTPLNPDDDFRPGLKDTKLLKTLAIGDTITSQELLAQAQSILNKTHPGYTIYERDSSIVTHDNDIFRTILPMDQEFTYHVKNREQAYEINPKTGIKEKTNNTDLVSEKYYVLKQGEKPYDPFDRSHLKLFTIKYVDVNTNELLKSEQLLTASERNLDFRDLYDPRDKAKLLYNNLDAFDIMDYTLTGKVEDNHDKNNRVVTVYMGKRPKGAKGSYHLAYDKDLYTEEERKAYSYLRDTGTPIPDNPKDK

T1 sequence (P11940 whole entry): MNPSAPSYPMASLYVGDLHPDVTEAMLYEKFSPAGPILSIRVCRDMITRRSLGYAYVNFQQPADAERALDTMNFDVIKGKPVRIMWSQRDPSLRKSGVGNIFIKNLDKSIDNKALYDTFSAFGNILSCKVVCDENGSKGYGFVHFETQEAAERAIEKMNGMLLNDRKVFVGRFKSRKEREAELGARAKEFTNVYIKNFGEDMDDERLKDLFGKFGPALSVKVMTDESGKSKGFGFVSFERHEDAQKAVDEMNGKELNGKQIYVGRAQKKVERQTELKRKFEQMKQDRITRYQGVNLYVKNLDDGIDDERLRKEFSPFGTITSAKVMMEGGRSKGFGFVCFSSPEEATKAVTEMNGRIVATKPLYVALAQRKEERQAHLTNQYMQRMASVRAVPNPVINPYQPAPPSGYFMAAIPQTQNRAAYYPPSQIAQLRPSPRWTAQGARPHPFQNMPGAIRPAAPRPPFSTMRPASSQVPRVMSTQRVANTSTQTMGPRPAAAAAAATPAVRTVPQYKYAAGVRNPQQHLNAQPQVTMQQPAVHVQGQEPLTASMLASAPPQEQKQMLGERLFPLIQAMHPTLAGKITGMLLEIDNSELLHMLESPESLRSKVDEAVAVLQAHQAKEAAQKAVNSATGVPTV

For `O=C1CCCC(=O)C1CS(=O)(=O)c1ccccc1`, which IC50 [1] is on record?
Its IC50 is > 66 µM (inactive).

What about the IC50 [2] of the same molecule?
The IC50 was > 83.2 µM (inactive).

And the IC50 [3]?
Its IC50 is > 66 µM (inactive).

What about the IC50 [4] of the same molecule?
The IC50 was > 109 µM (inactive).

Which results are given for `Cc1c(C)n(Cc2ccccc2)c2ccc(C(=O)OCCCN(C)C)cc12`?
IC50 [5]: 43.7 µM (active); EC50 [6]: < 0.1 µM (active); EC50 [7]: 0.153 µM (active); EC50 [8]: > 30 µM (not active)

With `CCOC(=O)c1c(NS(=O)(=O)c2cccc(OC)c2)sc2c1CCC2` as the molecule, how does the IC50 [2] read?
The IC50 was > 83.3 µM (inactive).

What about the IC50 [4] of the same molecule?
Its IC50 is > 109 µM (inactive).

With `CC(C)NC1=NN=C(c2ccc(F)cc2)CS1` as the molecule, how does the EC50 [9] read?
The EC50 was > 50 µM (active).

Which EC50 [9] does the source give for `CC(C)CC(c1nnnn1Cc1ccco1)N1CCN(c2cccc(Cl)c2)CC1` (configuration not stated) here?
The EC50 was > 50 µM (active).

What does the source list for `CCc1ccc(-c2ccc(C(=O)O)c(C)n2)cc1`?
IC50 [2]: > 83.2 µM (inactive); IC50 [4]: > 109 µM (inactive)

For `CCc1ccc2c(c1)C1(C(=O)N2)N2CCCC2C(C(=O)c2ccc3ccccc3c2)C12C(=O)Nc1ccccc12` (configuration not stated), which CC50 [10] is on record?
The CC50 was 16.2 µM (active).

And the EC50 [11]?
Its EC50 is 10.2 µM (active).

And the EC50 [12]?
Its EC50 is 10.1 µM (active).

And the AC50 [13]?
Its AC50 is 6.87 µM (active).

And the EC50 [14]?
Its EC50 is 9.78 µM (active).

And the AC50 [15]?
Its AC50 is 3.05 µM (active).

Which EC50 [6] does the source give for `O=C(N/N=C/c1ccc(-c2ccccc2Cl)o1)c1ccccc1` here?
Its EC50 is < 0.1 µM (active).

And the EC50 [7]?
The EC50 was 0.035 µM (active).

And the EC50 [8]?
The EC50 was > 60 µM (not active).

Which results are given for `Clc1ccc(C2=Nn3c(nnc3-c3cc(-c4ccccc4)n[nH]3)SC2)cc1`?
EC50 [16]: > 89.2 µM (inactive); EC50 [14]: 37.9 µM (inactive)

What does the source list for `CN(CC(=O)Nc1ccc2c(c1)CCC2)CC(=O)Nc1ccccc1Br`?
IC50 [2]: > 83.3 µM (inactive); IC50 [4]: > 109 µM (inactive)

For `C/C(=N\Nc1ccc(C)c(Cl)c1)c1cccnc1`, which EC50 [9] is on record?
The EC50 was > 50 µM (active).

Which EC50 [9] does the source give for `CC(=O)Nc1ccccc1-c1nc2ccc(C(=O)N3CCN(c4cc(C)ccc4C)CC3)cc2nc1O` here?
Its EC50 is > 50 µM (active).

With `NC(=O)CC(NC(=O)c1ccccc1)c1ccc(NCC2CC2)c([N+](=O)[O-])c1` (configuration not stated) as the molecule, how does the IC50 [2] read?
Its IC50 is > 83.3 µM (inactive).

What about the IC50 [4] of the same molecule?
The IC50 was > 109 µM (inactive).

For `Cc1noc(C)c1S(=O)(=O)N(CC(=O)O)c1ccc2c(c1)OCO2`, which IC50 [17] is on record?
The IC50 was 9.71 µM (active).

And the IC50 [18]?
Its IC50 is 0.084 µM (not active).

Which AC50 [19] does the source give for `Cc1cc(C)n(-c2nc(Nc3ccccc3C)nc(-n3nc(C)cc3C)n2)n1` here?
The AC50 was 15.8 µM (inconclusive).

And the AC50 [20]?
The AC50 was 39.8 µM (inconclusive).

What about the EC50 [21] of the same molecule?
The EC50 was 23.2 µM (active).

What about the EC50 [22] of the same molecule?
The EC50 was 8.77 µM (active).

What about the EC50 [14] of the same molecule?
Its EC50 is 7.86 µM (active).

What about the EC50 [6] of the same molecule?
The EC50 was 1.07 µM (active).

What about the EC50 [23] of the same molecule?
Its EC50 is > 150 µM (not active).

And the EC50 [8]?
The EC50 was > 60 µM (inconclusive).

With `O=C(N/N=C/c1ccc(N2CCOCC2)cc1)c1ccc(O)cc1` as the molecule, how does the EC50 [9] read?
The EC50 was > 50 µM (active).

What does the source list for `O=C(Cc1cccs1)Nc1ccc(S(=O)(=O)Nc2ncccn2)cc1`?
IC50 [17]: < 1.56 µM (active); IC50 [18]: 0.0699 µM (not active)

Which results are given for `CCOC(=O)c1c(NC(=O)Cn2cnc([N+](=O)[O-])n2)sc2c1CCCC2`?
EC50 [6]: < 0.1 µM (active); EC50 [7]: 0.121 µM (active); EC50 [8]: > 60 µM (not active)
